Assay results from patent US20060165649A1, “Methods of using and compositions comprising selective cytokine inhibitory drugs for the treatment and management of myeloproliferative diseases” (priority 2002, published 2006).

Test system: anesthetized dogs
Assay: Cardiovascular and respiratory function in anesthetized dogs (safety pharmacology)
Format: in vivo
Conditions: anesthetized Beagle dogs; three ascending doses 400, 800, and 1,200 mg/kg/day; infusion through the jugular vein; compared to the vehicle control group
Experimental: The pharmacological properties of 3-(3,4-dimethoxy-phenyl)-3-(1-oxo-1,3-dihydro-isoindol-2-yl)-propionamide, including activity comparisons with thalidomide, are characterized in in vitro studies. Studies examine the effects of 3-(3,4-dimethoxy-phenyl)-3-(1-oxo-1,3-dihydro-isoindol-2-yl)-propionamide on the production of various cytokines. In addition, a safety pharmacology study of 3-(3,4-dimethoxy-phenyl)-3-(1-oxo-1,3-dihydro-isoindol-2-yl)-propionamide is conducted in dogs and the effects of the compound on ECG parameters are examined further as part of three repeat-dose toxicity studies in primates.
The effects of 3-(3,4-dimethoxy-phenyl)-3-(l-oxo-1,3-dihydro-isoindol-2-yl)-propionamide on cardiovascular and respiratory function are investigated in anesthetized dogs. Two groups of Beagle dogs (2/sex/group) are used. One group receives three doses of vehicle only and the other receives three ascending doses of 3-(3,4-dimethoxy-phenyl)-3-(1-oxo-1,3-dihydro-isoindol-2-yl)-propionamide (400, 800, and 1,200 mg/kg/day). In all cases, doses of 3-(3,4-dimethoxy-phenyl)-3-(1-oxo-1,3-dihydro-isoindol-2-yl)-propionamide or vehicle are successively administered via infusion through the jugular vein separated by intervals of at least 30 minutes. […]

COc1ccc(C(CC(N)=O)N2Cc3ccccc3C2=O)cc1OC (stereo not shown) [3-(3,4-dimethoxy-phenyl)-3-(1-oxo-1,3-dihydro-isoindol-2-yl)-propionamide]
cardiovascular and respiratory changes: minimal
